Data taken from PMC2635417 (The Journal of endocrinology, 2008).
“Also recorded” adds a separate entry of the source. Read-outs that look alike come from different tables or passages of the source. No end group written: not given here.

Tests used:
CRH-R2 in αT3-1 cells = assay: Antisauvagine; assay type: cell-based, murine; conditions: 1 μM antisauvagine, 15 min pretreatment; for effect of antisauvagine alone on cAMP: versus vehicle
[1] = tested on: CRH receptors (CRH-R1 and CRH-R2) in αT3-1 cells; assay type: cell-based, murine; conditions: 1 mM IBMX, p<0.05; for inhibition of CRH-mediated cAMP increase: 10 μM α-helical CRH 9–41 or 1 μM astressin with 100 nM CRH, 3 min; for inhibition of UCN1-mediated cAMP increase: 10 μM α-helical CRH 9–41 or 1 μM astressin with 100 nM UCN1, 3 min
α-subunit in αT3-1 cells = conditions: ref Attardi and Winters 1998, Burrin, et al. 1998, Schomerus, et al. 1994, Tsujii, et al. 1995; cited from earlier work
αT3-1 cells [2] = conditions: cited from earlier work
[3] = tested on: PACAP receptor in LβT2 gonadotrope like cell line; conditions: LβT2 cells; ref Lariviere, et al. 2008; cited from earlier work
αT3-1 cells [4] = assay: Total inositol phosphate levels; assay type: cell-based, murine; conditions: treatment alone; preliminary studies, unpublished data, A. Seasholtz

## antisauvagine
CRH-R2 in αT3-1 cells; then 100 nM UCN1 3 min, partial block
  repression of UCN1-mediated cAMP increase: 75%
CRH-R2 in αT3-1 cells; then 100 nM UCN3 3 min, p<0.05
  inhibition of UCN3-mediated cAMP increase: completely blocked
CRH-R2 in αT3-1 cells
  effect of antisauvagine alone on cAMP: did not significantly differ from vehicle
CRH-R2 in αT3-1 cells; listed as AS
  effect of antisauvagine alone on cAMP: no significant difference

## astressin
[1]
  inhibition of CRH-mediated cAMP increase: completely blocked; also recorded: complete suppression; also recorded: completely inhibited; also recorded: significant repressions
  inhibition of UCN1-mediated cAMP increase: completely blocked; also recorded: complete suppression; also recorded: completely inhibited; also recorded: significant repressions

## pituitary adenylyl cyclase activating polypeptide (HSDGIFTDSYSRYRKQMAVKKYLAAVLGKRYKQRVKNK-NH2; ends and bridges not checked; UniProt P18509 132-169, looked up) [PACAP]
α-subunit in αT3-1 cells
  α-subunit transcriptional activity / mRNA / expression: increased transcriptional activity and steady state levels of α-subunit mRNA; also recorded: increased α-subunit expression
αT3-1 cells [2]; ref Attardi and Winters 1998, Burrin, et al. 1998, Schomerus, et al. 1994, Tsujii, et al. 1995
  effect on cAMP levels: increase intracellular cAMP levels

## gonadotropin- releasing hormone (QHWSYGLRPG; Gonadoliberin-1; UniProt P01148 24-33, looked up) [GnRH]
[3]
  PACAP receptor phosphorylation by PKC: stimulating PACAP receptor phosphorylation by PKC
αT3-1 cells [2]; alone, ref McArdle and Counis 1996, McArdle, et al. 1994
  effect on cAMP levels: does not alter cAMP levels
αT3-1 cells [4]
  effect on total inositol phosphate levels: dramatically increases total inositol phosphate levels

## alpha-helical CRH (9–41) [α-helical CRH 9–41]
[1]
  inhibition of CRH-mediated cAMP increase: reduced cAMP values to vehicle-treated levels
  inhibition of UCN1-mediated cAMP increase: reduced cAMP values to vehicle-treated levels
[1]; listed as α-helical CRH 9-41
  inhibition of CRH-mediated cAMP increase: completely blocked; also recorded: completely inhibited
  inhibition of UCN1-mediated cAMP increase: completely blocked; also recorded: completely inhibited
